For 17 compounds, IC50 results are on record in patent US20260325533A1, “CDK INHIBITOR COMPOUNDS” (ALEKSIA THERAPEUTICS, INC., priority 2023, published 2026).

Where two headings read alike, the source gives them in different places.

Common to all, as to type: biochemical
One experiment has as its target CDK6/CCND1 (Homo sapiens, UniProt Q00534). The experiment is described as follows: CDK6 homogeneous time-resolved fluorescence (HTRF) kinase assay. To be noted: CDK6/CCND, 1 mM ATP. The method in brief: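 Recombinant CDK6/CCND1 (1 nM final) was preincubated with compound for 20 min at 23 °C in HEPES buffer with MgCl2, EGTA, DTT and Tween 20. Kinase reaction then ran 60 min at 23 °C with 1 mM ATP and 50 nM ULight-4E-BP1 (Thr37/46) peptide, and was stopped with EDTA.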

Another experiment concerns the target CDK2/CCNE1 (Homo sapiens, UniProt P24941). The experiment is described as follows: CDK2 homogeneous time-resolved fluorescence (HTRF) kinase assay. To be noted: CDK2/CCNE. The method in brief:
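TR-FRET read-out (665 nm, or 665/615 ratio) of Eu-antibody detection of phospho-4E-BP1 (Thr37/46) ULight peptide. Enzyme 3 nM, ATP 1 mM, peptide 50 nM, 1% DMSO; 60 min reaction at 23 °C after 20 min compound preincubation. IC50 from 11-point half-log titrations, top typically 10 μM.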

The target in a further experiment is CDK4/CCND3 (Homo sapiens, UniProt P11802). The experiment is described as follows: CDK4 homogeneous time-resolved fluorescence (HTRF) kinase assay. To be noted: CDK4/CCND. The method in brief: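 IC50 values were derived from 11-point half-log dilutions, usually starting at 10 μM. Compound was first held for 20 min at 23 °C with 1.5 nM CDK4/CCND3. 1 mM ATP and 50 nM ULight-eIF4E-BP1 (Thr37/46) substrate were then added for 60 min, and the TR-FRET 665 nm signal was measured after EDTA stop and Eu-anti-phospho-4E-BP1 detection.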

For a further experiment, the target named is CDK1/CCNB1 (Homo sapiens, UniProt P06493). The experiment can be described thus: CDK1 homogeneous time-resolved fluorescence (HTRF) kinase assay. Particulars: CDK1/CCNB. The method in brief:
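HTRF assay with 0.5 nM CDK1/CCNB1, 1 mM ATP, 50 nM ULight-eIF4E-BP1 (Thr37/46) peptide; compound preincubated 20 min, reaction 60 min at 23 °C, EDTA stop, Eu-anti-phospho antibody detection. 11-point half-log titration from 10 μM, 1% DMSO; IC50 from 665 nm or 665/615 signal.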

Where [1] appears, read: 25-250 nM, read-out: CDK6/CCND IC50, 25-250 nM.
The mark [2] stands for this setting: <25 nM, read-out: CDK2/CCNE IC50, <25 nM.
Setting [3] is: 25-250 nM, read-out: CDK4/CCND IC50, 25-250 nM.
The mark [4] stands for this setting: 25-250 nM, read-out: CDK1/CCNB IC50, 25-250 nM.
Setting [5] is: >250 nM, read-out: CDK6/CCND IC50, >250 nM.
Setting [6] is: 25-250 nM, read-out: CDK2/CCNE IC50, 25-250 nM.
Where [7] appears, read: >250 nM, read-out: CDK4/CCND IC50, >250 nM.
[8] abbreviates: >250 nM, read-out: CDK1/CCNB IC50 >250 nM.

CDK6/CCND1, sequence (Q00534 whole entry): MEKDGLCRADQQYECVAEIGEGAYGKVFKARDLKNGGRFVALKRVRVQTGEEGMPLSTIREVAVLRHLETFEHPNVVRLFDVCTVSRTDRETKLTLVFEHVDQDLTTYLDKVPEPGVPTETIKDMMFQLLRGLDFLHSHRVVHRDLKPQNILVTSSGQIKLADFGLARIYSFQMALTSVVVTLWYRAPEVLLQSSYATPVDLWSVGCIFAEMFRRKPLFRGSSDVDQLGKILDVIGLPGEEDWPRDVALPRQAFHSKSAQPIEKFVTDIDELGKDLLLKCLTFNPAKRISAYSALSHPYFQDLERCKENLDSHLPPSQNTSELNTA
CDK6/CCND1, sequence (P24385 whole entry partner): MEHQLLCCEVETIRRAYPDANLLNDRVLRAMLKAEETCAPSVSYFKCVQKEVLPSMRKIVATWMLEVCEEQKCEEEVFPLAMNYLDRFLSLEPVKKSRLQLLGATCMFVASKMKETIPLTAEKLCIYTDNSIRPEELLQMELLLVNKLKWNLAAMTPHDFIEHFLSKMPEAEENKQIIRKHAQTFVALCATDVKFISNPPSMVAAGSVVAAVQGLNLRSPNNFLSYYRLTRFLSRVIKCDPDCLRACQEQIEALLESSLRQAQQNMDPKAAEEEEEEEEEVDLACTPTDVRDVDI
CDK1/CCNB1, sequence (P06493 whole entry): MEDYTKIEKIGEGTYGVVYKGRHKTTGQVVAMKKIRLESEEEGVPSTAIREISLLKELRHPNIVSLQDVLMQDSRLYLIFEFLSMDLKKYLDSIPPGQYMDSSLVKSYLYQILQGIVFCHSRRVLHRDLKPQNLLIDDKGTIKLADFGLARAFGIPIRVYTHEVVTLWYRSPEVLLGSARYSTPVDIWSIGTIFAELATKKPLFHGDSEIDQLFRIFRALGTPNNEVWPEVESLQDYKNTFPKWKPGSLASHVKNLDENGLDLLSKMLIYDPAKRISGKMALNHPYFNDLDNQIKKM
CDK1/CCNB1, sequence (P14635 whole entry partner): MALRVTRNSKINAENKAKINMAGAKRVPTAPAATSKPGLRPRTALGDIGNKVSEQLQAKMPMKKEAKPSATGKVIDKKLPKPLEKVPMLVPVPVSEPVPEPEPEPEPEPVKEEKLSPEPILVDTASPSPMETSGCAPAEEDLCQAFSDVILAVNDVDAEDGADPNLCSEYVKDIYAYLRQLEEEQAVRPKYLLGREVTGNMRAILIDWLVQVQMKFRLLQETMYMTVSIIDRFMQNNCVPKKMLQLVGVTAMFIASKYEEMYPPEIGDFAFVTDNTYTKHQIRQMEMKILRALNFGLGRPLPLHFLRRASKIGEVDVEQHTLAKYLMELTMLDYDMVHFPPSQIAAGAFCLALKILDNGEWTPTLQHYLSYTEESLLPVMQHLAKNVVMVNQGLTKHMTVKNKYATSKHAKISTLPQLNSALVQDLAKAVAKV
CDK4/CCND3, sequence (P11802 whole entry): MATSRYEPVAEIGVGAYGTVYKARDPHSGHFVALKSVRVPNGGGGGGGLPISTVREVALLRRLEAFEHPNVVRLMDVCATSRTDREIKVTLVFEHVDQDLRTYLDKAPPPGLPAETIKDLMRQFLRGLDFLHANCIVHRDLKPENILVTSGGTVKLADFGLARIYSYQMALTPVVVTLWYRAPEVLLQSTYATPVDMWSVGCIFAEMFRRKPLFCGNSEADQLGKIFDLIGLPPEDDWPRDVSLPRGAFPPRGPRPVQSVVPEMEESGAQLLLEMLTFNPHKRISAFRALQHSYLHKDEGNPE
CDK4/CCND3, sequence (P30281 whole entry partner): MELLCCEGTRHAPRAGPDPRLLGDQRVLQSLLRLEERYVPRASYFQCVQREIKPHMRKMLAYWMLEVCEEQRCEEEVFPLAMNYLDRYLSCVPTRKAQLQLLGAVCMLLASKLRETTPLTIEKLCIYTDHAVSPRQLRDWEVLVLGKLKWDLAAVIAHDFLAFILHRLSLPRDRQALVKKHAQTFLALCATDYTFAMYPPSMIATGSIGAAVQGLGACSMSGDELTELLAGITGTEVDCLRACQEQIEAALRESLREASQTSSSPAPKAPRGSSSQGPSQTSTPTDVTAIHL

Take `Cc1ccc(S(=O)(=O)Nc2ccc(Nc3cc4c(-c5ccc6c(cnn6CC(C)(C)O)c5C)nccc4cn3)cc2)cn1` [Ex 823, N-(4-((5-(1-(2-hydroxy-2-methylpropyl)-4-methyl-1H-indazol-5-yl)-2,6-naphthyridin-3-yl)amino)phenyl)-6-methylpyridine-3-sulfonamide]: the IC50 at CDK6/CCND1 (setting [1]) is 25 to 250 nM; on CDK2/CCNE1 (setting [2]) it was below 25 nM; on CDK4/CCND3 (setting [3]) it was 25 to 250 nM; at CDK1/CCNB1 (setting [4]) it was 25 to 250 nM.
Take `Cc1c(-c2nccc3cnc(Nc4ccc(NS(=O)(=O)c5cnn(-c6ccccn6)c5)cc4)cc23)ccc2c1cnn2CC(C)(C)O` [Ex 824, N-(4-((5-(1-(2-hydroxy-2-methylpropyl)-4-methyl-1H-indazol-5-yl)-2,6-naphthyridin-3-yl)amino)phenyl)-1-(pyridin-2-yl)-1H-pyrazole-4-sulfonamide]: the IC50 was above 250 nM on CDK6/CCND1 (setting [5]), 25 to 250 nM at CDK2/CCNE1 (setting [6]), above 250 nM at CDK4/CCND3 (setting [7]) and above 250 nM on CDK1/CCNB1 (setting [8]).
`Cc1c(-c2nccc3cnc(Nc4ccc(NS(=O)(=O)c5ccoc5)cc4)cc23)ccc2c1cnn2CC(C)(C)O` [Ex 825, N-(4-((5-(1-(2-hydroxy-2-methylpropyl)-4-methyl-1H-indazol-5-yl)-2,6-naphthyridin-3-yl)amino)phenyl)furan-3-sulfonamide]: the IC50 on CDK6/CCND1 (setting [1]) was 25 to 250 nM; on CDK2/CCNE1 (setting [2]), below 25 nM; at CDK4/CCND3 (setting [3]) it was 25 to 250 nM; at CDK1/CCNB1 (setting [4]) it was 25 to 250 nM.
On to `Cc1nn(-c2ccccc2)c(C)c1S(=O)(=O)Nc1ccc(Nc2cc3c(-c4ccc5c(cnn5CC(C)(C)O)c4C)nccc3cn2)cc1` [Ex 826, N-(4-((5-(1-(2-hydroxy-2-methylpropyl)-4-methyl-1H-indazol-5-yl)-2,6-naphthyridin-3-yl)amino)phenyl)-3,5-dimethyl-1-phenyl-1H-pyrazole-4-sulfonamide], for which the IC50 at CDK6/CCND1 (setting [5]) is above 250 nM; on CDK2/CCNE1 (>250 nM, read-out: CDK2/CCNE IC50, >250 nM), above 250 nM; on CDK4/CCND3 (setting [7]) it was above 250 nM; on CDK1/CCNB1 (setting [8]), above 250 nM.
In the case of `Cc1c(-c2nccc3cnc(Nc4ccc(NS(=O)(=O)c5ccc(Cl)s5)cc4)cc23)ccc2c1cnn2CC(C)(C)O` [Ex 827, 5-chloro-N-(4-((5-(1-(2-hydroxy-2-methylpropyl)-4-methyl-1H-indazol-5-yl)-2,6-naphthyridin-3-yl)amino)phenyl)thiophene-2-sulfonamide], the IC50 on CDK6/CCND1 (setting [5]) is above 250 nM; at CDK2/CCNE1 (setting [6]), 25 to 250 nM; on CDK4/CCND3 (setting [7]) it was above 250 nM; at CDK1/CCNB1 (setting [8]) it was above 250 nM.
Turning to `Cc1c(-c2nccc3cnc(Nc4ccc(NS(=O)(=O)c5cn(C)cn5)cc4)cc23)ccc2c1cnn2CC(C)(C)O` [Ex 828, N-(4-((5-(1-(2-hydroxy-2-methylpropyl)-4-methyl-1H-indazol-5-yl)-2,6-naphthyridin-3-yl)amino)phenyl)-1-methyl-1H-imidazole-4-sulfonamide], the IC50 on CDK6/CCND1 (setting [1]) was 25 to 250 nM; on CDK2/CCNE1 (setting [2]), below 25 nM; at CDK4/CCND3 (setting [3]), 25 to 250 nM; at CDK1/CCNB1 (setting [4]) it was 25 to 250 nM.
With `CCc1ccc(S(=O)(=O)Nc2ccc(Nc3cc4c(-c5ccc6c(cnn6CC(C)(C)O)c5C)nccc4cn3)cc2)s1` [Ex 829, 5-ethyl-N-(4-((5-(1-(2-hydroxy-2-methylpropyl)-4-methyl-1H-indazol-5-yl)-2,6-naphthyridin-3-yl)amino)phenyl)thiophene-2-sulfonamide], the IC50 at CDK6/CCND1 (setting [5]) was above 250 nM; at CDK2/CCNE1 (setting [2]) it was below 25 nM; on CDK4/CCND3 (setting [7]) it was above 250 nM; at CDK1/CCNB1 (setting [8]), above 250 nM.
For the compound `Cc1nn(C)c(C)c1S(=O)(=O)Nc1ccc(Nc2cc3c(-c4ccc5c(cnn5CC(C)(C)O)c4C)nccc3cn2)cc1` [Ex 830, N-(4-((5-(1-(2-hydroxy-2-methylpropyl)-4-methyl-1H-indazol-5-yl)-2,6-naphthyridin-3-yl)amino)phenyl)-1,3,5-trimethyl-1H-pyrazole-4-sulfonamide], the IC50 at CDK6/CCND1 (setting [5]) was above 250 nM; at CDK2/CCNE1 (setting [2]), below 25 nM; on CDK4/CCND3 (setting [7]), above 250 nM; at CDK1/CCNB1 (setting [8]) it was above 250 nM.
Consider `Cc1c(-c2nccc3cnc(Nc4ccc(NS(=O)(=O)c5ccsc5)cc4)cc23)ccc2c1cnn2CC(C)(C)O` [Ex 831, N-(4-((5-(1-(2-hydroxy-2-methylpropyl)-4-methyl-1H-indazol-5-yl)-2,6-naphthyridin-3-yl)amino)phenyl)thiophene-3-sulfonamide], for which the IC50 at CDK6/CCND1 (setting [5]) is above 250 nM; on CDK2/CCNE1 (setting [2]) it was below 25 nM; on CDK4/CCND3 (setting [7]), above 250 nM; on CDK1/CCNB1 (setting [8]), above 250 nM.
On to `Cc1c(-c2nccc3cnc(Nc4ccc(NS(=O)(=O)c5ccn(C)n5)cc4)cc23)ccc2c1cnn2CC(C)(C)O` [Ex 832, N-(4-((5-(1-(2-hydroxy-2-methylpropyl)-4-methyl-1H-indazol-5-yl)-2,6-naphthyridin-3-yl)amino)phenyl)-1-methyl-1H-pyrazole-3-sulfonamide], for which the IC50 is 25 to 250 nM at CDK6/CCND1 (setting [1]), below 25 nM at CDK2/CCNE1 (setting [2]), 25 to 250 nM at CDK4/CCND3 (setting [3]) and 25 to 250 nM on CDK1/CCNB1 (setting [4]).
For `Cc1oncc1S(=O)(=O)Nc1ccc(Nc2cc3c(-c4ccc5c(cnn5CC(C)(C)O)c4C)nccc3cn2)cc1` [Ex 833, N-(4-((5-(1-(2-hydroxy-2-methylpropyl)-4-methyl-1H-indazol-5-yl)-2,6-naphthyridin-3-yl)amino)phenyl)-5-methylisoxazole-4-sulfonamide], the IC50 at CDK6/CCND1 (setting [5]) is above 250 nM; on CDK2/CCNE1 (setting [6]), 25 to 250 nM; on CDK4/CCND3 (setting [7]) it was above 250 nM; at CDK1/CCNB1 (setting [8]), above 250 nM.
As for `Cc1c(-c2nccc3cnc(Nc4ccc(NS(=O)(=O)c5cccs5)cc4)cc23)ccc2c1cnn2CC(C)(C)O` [Ex 834, N-(4-((5-(1-(2-hydroxy-2-methylpropyl)-4-methyl-1H-indazol-5-yl)-2,6-naphthyridin-3-yl)amino)phenyl)thiophene-2-sulfonamide], the IC50 at CDK6/CCND1 (setting [5]) is above 250 nM; at CDK2/CCNE1 (setting [2]), below 25 nM; on CDK4/CCND3 (setting [7]), above 250 nM; at CDK1/CCNB1 (setting [8]), above 250 nM.
For the compound `Cc1c(-c2nccc3cnc(Nc4ccc(NS(=O)(=O)c5cnn(C)c5)cc4)cc23)ccc2c1cnn2CC(C)(C)O` [Ex 835, N-(4-((5-(1-(2-hydroxy-2-methylpropyl)-4-methyl-1H-indazol-5-yl)-2,6-naphthyridin-3-yl)amino)phenyl)-1-methyl-1H-pyrazole-4-sulfonamide], the IC50 on CDK6/CCND1 (setting [1]) was 25 to 250 nM; at CDK2/CCNE1 (setting [2]), below 25 nM; at CDK4/CCND3 (setting [3]) it was 25 to 250 nM; on CDK1/CCNB1 (setting [4]), 25 to 250 nM.
In the case of `Cc1cc(Nc2cc3c(-c4ccc5c(cnn5CC(C)(C)O)c4C)nccc3cn2)ccc1S(C)(=O)=O` [Ex 836, 2-methyl-1-(4-methyl-5-(7-((3-methyl-4-(methylsulfonyl)phenyl)amino)-2,6-naphthyridin-1-yl)-1H-indazol-1-yl)propan-2-ol], the IC50 is above 250 nM at CDK6/CCND1 (setting [5]), below 25 nM on CDK2/CCNE1 (setting [2]), above 250 nM at CDK4/CCND3 (setting [7]) and above 250 nM on CDK1/CCNB1 (setting [8]).
Take `COc1cc(Nc2cc3c(-c4ccc5c(cnn5CC(C)(C)O)c4C)nccc3cn2)ccc1S(C)(=O)=O` [Ex 837, 1-(5-(7-((3-methoxy-4-(methylsulfonyl)phenyl)amino)-2,6-naphthyridin-1-yl)-4-methyl-1H-indazol-1-yl)-2-methylpropan-2-ol]: the IC50 at CDK6/CCND1 (setting [5]) is above 250 nM; on CDK2/CCNE1 (setting [6]), 25 to 250 nM; on CDK4/CCND3 (setting [7]) it was above 250 nM; on CDK1/CCNB1 (setting [8]) it was above 250 nM.
On to `COc1cc(S(C)(=O)=O)ccc1Nc1cc2c(-c3ccc4c(cnn4CC(C)(C)O)c3C)nccc2cn1` [Ex 838, 1-(5-(7-((2-methoxy-4-(methylsulfonyl)phenyl)amino)-2,6-naphthyridin-1-yl)-4-methyl-1H-indazol-1-yl)-2-methylpropan-2-ol], for which the IC50 at CDK6/CCND1 (setting [5]) was above 250 nM; on CDK2/CCNE1 (setting [2]) it was below 25 nM; at CDK4/CCND3 (setting [7]) it was above 250 nM; at CDK1/CCNB1 (setting [8]), above 250 nM.
With `Cc1c(-c2nccc3cnc(Nc4ccc(NS(=O)(=O)c5cccnc5)cc4)cc23)ccc2c1cnn2CC(C)(C)O` [Ex 839, N-(4-((5-(1-(2-hydroxy-2-methylpropyl)-4-methyl-1H-indazol-5-yl)-2,6-naphthyridin-3-yl)amino)phenyl)pyridine-3-sulfonamide], the IC50 was 25 to 250 nM on CDK6/CCND1 (setting [1]), below 25 nM on CDK2/CCNE1 (setting [2]), 25 to 250 nM at CDK4/CCND3 (setting [3]) and 25 to 250 nM on CDK1/CCNB1 (setting [4]).
